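How tested: cells in 96-well plates exposed to compound for 48 hours at five concentrations. GI50 = concentration required for 50% inhibition of growth.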 Activity calls are given as the source filed them. No stated cut-off is given here; in the data, active = GI50 up to about 1.1 µM and inactive = higher.
Assays:
Assay in all cases: inhibition of tumour cell growth, NCI panel, 48 h
MOLT-4 = test system: MOLT-4
HT-29 = test system: HT-29
SK-MEL-5 = test system: SK-MEL-5
IGROV-1 = test system: IGROV-1
A549 = test system: A549
Malme-3M = test system: Malme-3M
CCRF-CEM = test system: CCRF-CEM
NCI-H460 = test system: NCI-H460
SW-620 = test system: SW-620
UO-31 = test system: UO-31
Hs-578T = test system: Hs-578T
HCC 2998 = test system: HCC 2998
U-251 = test system: U-251
TK-10 = test system: TK-10
SR = test system: SR
SF-295 = test system: SF-295
A498 = test system: A498
NCI-H23 = test system: NCI-H23
NCI-H226 = test system: NCI-H226

SMILES	GI50 (MOLT-4)	GI50 (HT-29)	GI50 (SK-MEL-5)	GI50 (IGROV-1)	GI50 (A549)	GI50 (Malme-3M)	GI50 (CCRF-CEM)	GI50 (NCI-H460)	GI50 (SW-620)	GI50 (UO-31)	GI50 (Hs-578T)	GI50 (HCC 2998)	GI50 (U-251)	GI50 (TK-10)	GI50 (SR)	GI50 (SF-295)	GI50 (A498)	GI50 (NCI-H23)	GI50 (NCI-H226)
O=Nc1c(-c2c(O)[nH]c3ccccc23)[nH]c2ccccc12 [INDIRUBIN-3-MONOXIME]	4.15 µM (inactive)	7.14 µM (inactive)	3.99 µM (inactive)	2.67 µM (inactive)	3.8 µM (inactive)	3.89 µM (inactive)	4.4 µM (inactive)	3.53 µM (inactive)	4.79 µM (inactive)	2.38 µM (inactive)	4.47 µM (inactive)	4.27 µM (inactive)	6.97 µM (inactive)	5.79 µM (inactive)	4.85 µM (inactive)	10.1 µM (inactive)	2.29 µM (inactive)	7.83 µM (inactive)	–
CN(C)c1ccc(/C=C2\Oc3cc(O)ccc3C2=O)cc1	60.8 µM (inactive)	–	80.7 µM (inactive)	> 100 µM (inactive)	88.1 µM (inactive)	–	69.5 µM (inactive)	80.5 µM (inactive)	48.9 µM (inactive)	> 100 µM (inactive)	> 100 µM (inactive)	> 100 µM (inactive)	57 µM (inactive)	> 100 µM (inactive)	52 µM (inactive)	30.5 µM (inactive)	–	> 100 µM (inactive)	> 100 µM (inactive)
NNC(=O)c1cc(Cl)ccc1NC(=O)C12CC3CC(CC(C3)C1)C2	12.1 µM (inactive)	20.2 µM (inactive)	25.9 µM (inactive)	30.8 µM (inactive)	20.2 µM (inactive)	23.6 µM (inactive)	–	30.9 µM (inactive)	39.6 µM (inactive)	17.1 µM (inactive)	31.8 µM (inactive)	18.5 µM (inactive)	31.4 µM (inactive)	28.4 µM (inactive)	14.4 µM (inactive)	39.5 µM (inactive)	–	37.6 µM (inactive)	> 100 µM (inactive)
O=C(/C=C(\N=P(c1ccccc1)(c1ccccc1)c1ccccc1)C(F)(F)C(F)(F)C(F)(F)C(F)(F)C(F)(F)C(F)(F)C(F)(F)F)c1ccccc1	> 100 µM (inactive)	> 100 µM (inactive)	> 100 µM (inactive)	> 100 µM (inactive)	> 100 µM (inactive)	> 100 µM (inactive)	> 100 µM (inactive)	> 100 µM (inactive)	> 100 µM (inactive)	> 100 µM (inactive)	> 100 µM (inactive)	> 100 µM (inactive)	> 100 µM (inactive)	> 100 µM (inactive)	> 100 µM (inactive)	> 100 µM (inactive)	–	> 100 µM (inactive)	–
CC1=C2C(=O)NN=C2CCN1c1ccc(Br)cc1	9.62 µM (inactive)	> 100 µM (inactive)	> 100 µM (inactive)	> 100 µM (inactive)	> 100 µM (inactive)	35.3 µM (inactive)	2.2 µM (inactive)	> 100 µM (inactive)	> 100 µM (inactive)	54.3 µM (inactive)	> 100 µM (inactive)	–	> 100 µM (inactive)	> 100 µM (inactive)	–	> 100 µM (inactive)	68.7 µM (inactive)	> 100 µM (inactive)	> 100 µM (inactive)
C/C(=N\Nc1nc2ccccc2[nH]1)c1cnccn1	0.232 µM (active)	0.394 µM (active)	0.881 µM (active)	0.139 µM (active)	1.88 µM (inactive)	0.791 µM (active)	0.31 µM (active)	0.394 µM (active)	0.4 µM (active)	0.548 µM (active)	19.8 µM (inactive)	19.6 µM (inactive)	0.628 µM (active)	4.09 µM (inactive)	–	1.77 µM (inactive)	1.98 µM (inactive)	1.71 µM (inactive)	0.441 µM (active)
CCCCCCNC(=O)c1cc(C#Cc2cc(OC)ccc2OC)ccc1OC	4.84 µM (inactive)	7.53 µM (inactive)	19.6 µM (inactive)	72.1 µM (inactive)	> 100 µM (inactive)	–	–	8.73 µM (inactive)	8.49 µM (inactive)	62.1 µM (inactive)	> 100 µM (inactive)	1.93 µM (inactive)	> 100 µM (inactive)	> 100 µM (inactive)	3.18 µM (inactive)	51.9 µM (inactive)	> 100 µM (inactive)	47.4 µM (inactive)	–
CN1C/C(=C\c2cccs2)C(O)/C(=C/c2cccs2)C1 (configuration not stated)	25.2 µM (inactive)	> 100 µM (inactive)	> 100 µM (inactive)	53 µM (inactive)	> 100 µM (inactive)	50.1 µM (inactive)	27 µM (inactive)	> 100 µM (inactive)	> 100 µM (inactive)	97.3 µM (inactive)	> 100 µM (inactive)	41.1 µM (inactive)	> 100 µM (inactive)	> 100 µM (inactive)	–	> 100 µM (inactive)	> 100 µM (inactive)	> 100 µM (inactive)	> 100 µM (inactive)

From ChEMBL document CHEMBL1201862, “PubChem BioAssay data set” (2004)
